Measurements: patent publication US20070179181A1, “Treatment of inflammatory disorders and pain using beta-aminoalcohols” (priority 2004, published 2007)

Key:
alpha1 adrenoceptor = assay: Alpha1 adrenoceptor binding affinity (3H-prazosin, rat brain homogenate); parameters: species or system Wistar rats; settings: radioligand 3H-prazosin 0.25 nM
Experimental: (§1) Adrenoceptor Binding Affinity Brains from Wistar rats were homogenised and incubated with test article (over a concentration range) and the radioligand 3H-prazosin (0.25 nM) for 30 minutes at 25° C., in a 50 mM Tris-HCl, 0.1% ascorbic acid, 10 μM pargyline incubation buffer. After washing, binding was measured by scintillation counting. LPS Mouse Assay

[1] = tested on: rat adjuvant model of arthritis; assay: Rat adjuvant assay (model of arthritis); type: in vivo, Wistar rats
Experimental: Rat Adjuvant Assay Male Wistar rats (180 to 200 g) were inoculated by subplantar injection of freund's adjuvant (suspension of Mycobacterium butyricum in mineral oil) into the right paw at day 0. Sham inoculations were injected in the same way with 0.9% saline in matched Male Wistar rats. On day 2 animals were weighed. On days 3, 4, 7, 9 and 11 animals were weighed and both their right and left hind paws were measure by plethsymometry by submerging the paw up to the tibiotarsal joint. On day 11, rats with left hind paw volumes increased by 20% were selected for continuance in the study. On the same day continuance rats were administered test article orally (10 ml/kg in distilled water) and from then on once a day until the completion of the study. Left and right hind paw volumes were measured on days 11, 14, 15, 16, 18 and 21.

TNFα = assay: LPS mouse assay, serum TNFα; type: in vivo, Balb C ByJ mice; settings: LPS-challenged mouse
Experimental: as §1, with “Brains” for “Adrenoceptor Binding Affinity Brains”
7 week old Balb C ByJ mice (24-28 g) were administered, either by i.p. (5 ml/kg) or oral (10 ml/kg) administration, with vehicle or test article. 30 minutes later these animals were challenged with an intraperitoneal injection of 1 mg/kg LPS. 2 hours after LPS challenge blood samples were collected under light isoflurane anaesthesia into normal tubes by retro-orbital puncture. Samples were allowed to clot at room temperature and then spun at 6000 g for 3 min at 4° C. Serum was stored at −20° C. until use. Serum TNFa and IL-10 levels were analysed in duplicate by ELISA technique.

Compound	Alpha1 affinity (alpha1 adrenoceptor)	other results
CC(C(O)c1ccc(O)cc1)N1CCC(Cc2ccccc2)CC1 (stereo not drawn) [erythro (+), Ifenprodil]	63 nM	
CC(CCc1ccccc1)NCC(O)c1ccc(O)c(C(N)=O)c1 (stereo not shown) [labetalol]		efficacy in rat adjuvant model of arthritis ([1]; 30 mg/kg): Pronounced (and similar) efficacy; efficacy in rat adjuvant model of arthritis ([1]; 100 mg/kg): Pronounced (and similar) efficacy
CC(NCCc1ccc(O)cc1)C(O)c1ccc(O)cc1 (stereo not shown) [ritodrine]		LPS-induced systemic TNFα release in mouse blood (TNFα): cytokine modulatory activity

Further lines, with some results ahead:

Alpha1 affinity (alpha1 adrenoceptor)	Compound	other results
482 nM	CC(C(O)c1ccc(O)cc1)N1CCC(Cc2ccccc2)CC1 (stereo not drawn) [erythro (−), Ifenprodil]	
2160 nM	CC(C(O)c1ccc(O)cc1)N1CCC(Cc2ccccc2)CC1 (stereo not drawn) [threo (+), Ifenprodil]	
439 nM	CC(C(O)c1ccc(O)cc1)N1CCC(Cc2ccccc2)CC1 (stereo not drawn) [threo (−), Ifenprodil]	
